Assay: Human HepG2 cell viability assay in 384 well format
Format: toxicity, cell-based
Parameters: dose 125 nL, time 70.5 hour; cytotoxicity at 70.5 h: concentration not given beside the values
Conditions: HepG2 cells, read-out: Inhibition

Row | Structure (SMILES) | cytotoxicity at 70.5 h [%]
1 | O=S(=O)(c1ccccc1)N1CC[C@]2(C[C@@H](OCC3CC3)CO2)C1 | -10.2
2 | CN(C)Cc1cnc(C2CCN(C(=O)c3cc(F)cc(F)c3)C2)[nH]1 (stereo unspecified) | -2.53
3 | CC(C)(C)C(=O)NCCC(=O)NS(=O)(=O)c1cccc(C#N)c1 | 15.8
4 | CCn1cc(Br)c(C(=O)NCc2ccccc2)n1 | 1.89
5 | Cc1ccc(-c2nnc(C(C)N3CCn4c(C)nnc4C3)o2)cc1 (stereo unspecified) | -1.43
6 | CN(C)Cc1cc(-c2nccn2CCc2cccnc2)ccc1O | -5.02
7 | Cc1noc(C)c1CN(Cc1ccccc1)C(C)C | 12.4
8 | Cn1ccnc1C1CCN(CCN2CCOCC2)CC1 | -8.74
9 | CC(C)[C@@H]1CN(CCOc2ccccc2)C[C@H]1NS(=O)(=O)N(C)C | -5.28
10 | Cc1cc(C)n(-c2ccc3nnc(C)n3n2)n1 | 18
11 | N#Cc1ncn(CCC(=O)Nc2ccc(Cl)cc2F)n1 | -7.28
12 | CCOc1nnc(CN(CC)CC(=O)Nc2c(F)cccc2F)s1 | -5.55
13 | CC(C)(C)c1ncc(C(=O)NCCn2ccnc2)s1 | 24.5
14 | Cc1cc(NC(=O)Cn2ccc(=O)c3ccccc32)[nH]n1 | -3.31
15 | COc1cc(CNCCn2ccnc2)cc2c1OCO2 | 1.27
16 | CC(C)n1c(C(=O)N2CCCC2)nc2c1CCN(c1ncccn1)C2 | 0.473
17 | COc1ccccc1[C@@H]1CN(Cc2nccn2C)C[C@H]1C(=O)O | -3.84
18 | COCCC1(CO)CCCN(C(=O)c2cc(C#N)c(=O)[nH]c2C)C1 (stereo unspecified) | -0.759
19 | COCCN1CCO[C@@H]2CN(C(=O)NCc3ccccc3)CC[C@@H]2C1 | 2.53
20 | CCC(CO)NCc1ccc(-c2ccc(Br)cc2)o1 (stereo unspecified) | 0.103
21 | COc1ccc(S(=O)(=O)NCCn2cnc(C)cc2=O)cc1C | -9.08
22 | Cc1cnn(CC2CCCN2Cc2noc(C)n2)c1 (stereo unspecified) | -9.78
23 | Cc1cc(C)c2cc(C(=O)N3CCN(Cc4ccco4)CC3)[nH]c2c1 | -13.2

Row | Structure (SMILES) | cytotoxicity at 70.5 h [%]
24 | Cc1ncnc2c1CCN(Cc1ccc3c(c1)OCO3)CC2 | -3.06
25 | c1nc2n(n1)CC(NCc1csc(-c3ccsc3)n1)CC2 (stereo unspecified) | -17.5
26 | Fc1ccc2[nH]c(C3CCCN3Cc3c[nH]cn3)nc2c1 (stereo unspecified) | 28.4
27 | CC(=O)N(C)Cc1cccc(NC(=O)c2cnn(C)c2C)c1 | 22
28 | CN(Cc1cccc(O)c1)Cc1cnn(C)c1 | -4.55
29 | CCC(=O)N1CCCC(c2cc(Nc3ncccn3)nc(C)n2)C1 (stereo unspecified) | -5.83
30 | Cc1ccccc1C(C(=O)NCCSC(C)C)N(C)C (stereo unspecified) | -9.38
31 | O=C(Cc1csc(-c2ccco2)n1)N1CCN(c2ccccc2O)CC1 | -4.66
32 | Cc1ccc2nc(C3CCN(CC(C)C)CC3)nc(O)c2c1 | -6.3
33 | O=C(Nc1ccc(CCN2CCOCC2)cc1)C1CCCC1 | -3.35
34 | CC(=O)N1N=C(COc2ccc3c(c2)OCO3)OC1c1ccc(C)cc1 (stereo unspecified) | -14.5
35 | O=C(C1CCC1)N1CCN(Cc2cccnc2)[C@H]2CS(=O)(=O)C[C@H]21 | -2.54
36 | CCCc1noc(CCC(=O)N2CCCC(n3ccnc3C)C2)n1 (stereo unspecified) | -9.38
37 | CCc1nnc(CN2CCOC(Cn3cc(C)cn3)C2)o1 (stereo unspecified) | -6.6
38 | CC(C)N1C(=O)CC(NC(=O)c2cc(Cl)sc2Cl)C1=O (stereo unspecified) | -8.84
39 | COc1cc(C)c(NC(=O)CCn2cccc2)cc1OC | -6.6
40 | CC(C)Nc1nc(-c2ccccc2)nc2c1CCN(C(=O)C1CC1)CC2 | -9.57
41 | CCCN1CCN(C(=O)c2cnccc2C)[C@H]2CS(=O)(=O)C[C@H]21 | -3.96
42 | CCN(Cc1ccc(C#N)cc1F)C(=O)CN(C)CC(N)=O | -4.58
43 | CN(C)c1cccc(C(=O)N2CCC(c3n[nH]c(C4CC4)n3)CC2)c1 | -5.06
44 | CCOCCCNC(=O)C1(C)CCC(=O)N1c1ccccc1F (stereo unspecified) | -3.95
45 | Cc1cccc(-n2cnnc2CCCN2CCOCC2)c1 | -7.97
46 | Cc1ccc(=O)n(CC2(O)CCN(Cc3cc(C)c(O)c(C)c3)CC2)n1 | 22.7

Row | Structure (SMILES) | cytotoxicity at 70.5 h [%]
47 | CCS(=O)(=O)Nc1ccc(C(=O)NCCCN2CCCC2)cc1 | -4.61
48 | CCN(C(=O)Nc1nccs1)C(C)c1cccc(O)c1 (stereo unspecified) | -9.8
49 | Cn1cc(S(=O)(=O)NCC2CCN(C(=O)Oc3ccccc3)CC2)cn1 | 2.31
50 | Cc1ccc(NC2CCN(C(=O)c3cc4c(s3)CCC4)CC2)nn1 | -13.9
51 | Cc1ccc(CN(CCCN2CCOCC2)Cc2[nH]cnc2C)o1 | -2.33
52 | Cc1ccccc1C(=O)N1CCO[C@H]2[C@H](OCCN(C)C)CC[C@@H]21 | -2.16
53 | CC(C)NC(=O)CCNC(=O)c1c(Br)c2ccccc2n1C | -0.338
54 | NC(=O)CSCC(=O)NC1(c2cccc(Br)c2)CC1 | 32.5
55 | CC(=O)N1CCC2(CCN(C(=O)c3ccc(Cl)c(C(F)(F)F)c3)CC2)C1 | 1.62
56 | CCOC(=O)N1CCC(Nc2cc(CC)nc3c(C)c(C)nn23)CC1 | -4.43
57 | Cc1cccc(CN2C[C@@H]3[C@@H](C(=O)NCC(C)C)CCS(=O)(=O)[C@@H]3C2)c1 | -6.13
58 | CNC(=O)[C@@H]1C[C@H](N)CN1S(=O)(=O)c1cc(Cl)c(Cl)s1 | -2.73
59 | O=C1CCC2(CCN(Cc3ccc(F)cc3)CC2)N1Cc1ccccc1 | -5.78
60 | CCC(CC)C(CNC(=O)Nc1cc(C)nn1C)N1CCOCC1 (stereo unspecified) | 36.9
61 | COCCc1noc(-c2ccc(-c3ccc(N)nc3)nc2)n1 | -2.31
62 | Cc1cc(C)c(CNC(=O)N2CCN(c3ccccn3)CC2)c(=O)[nH]1 | 0.786
63 | CCn1cnnc1CNC(=O)c1cc(Cl)c(I)cc1OC | -7.1
64 | CCc1nnc2n1CCN(Cc1cc(Cl)c3c(c1)OCCO3)C2 | 21.4
65 | O=C(Cc1ccccn1)N1CCC(c2noc(-c3ccncc3)n2)CC1 | 5.1
66 | Cc1ccsc1C(=O)N1CC(C(=O)NCC2CC2)C2(CCOCC2)C1 (stereo unspecified) | 7.19
67 | CC(=O)N(C)c1nc(CN2CCN(Cc3nccn3C)CC2)cs1 | 10.2
68 | Cc1cc(C)n2nc(CC(=O)N3CC[C@H]4NCCC[C@]4(CO)C3)nc2n1 | -3.3
69 | Cc1nccn1C1CCCN(C(=O)c2ccc3c(c2)CCC3)C1 (stereo unspecified) | 0.881

Row | Structure (SMILES) | cytotoxicity at 70.5 h [%]
70 | Cn1cnc(S(=O)(=O)N2CCCc3c(F)cc(F)cc32)c1Cl | 22.3
71 | O=S(=O)(c1c(N2CCCC2)ccc2nonc12)N1CCCC1 | -1.28
72 | CC1CN(c2ccc(CNC(=O)NCc3ccoc3)cn2)CCO1 (stereo unspecified) | -5.8
73 | O=C(NCCSC1CCCC1)c1cc(Cl)ccn1 | 22.7
74 | CCN(CC)Cc1ccc(C(=O)N2CCCC2Cn2cccn2)o1 (stereo unspecified) | -1.33
75 | Cc1csc2c(=O)n3c(nc12)CCN(C(=O)c1ccnn1C)CC3 | -6.6
76 | CN1CCC2(CCN(S(=O)(=O)c3ccc(-c4cnco4)s3)CC2)C1 | -8.53
77 | CCN1CCN(C(=O)c2nc(C)n(-c3ccccc3Cl)n2)CC1 | 7.74
78 | CC(C)c1ncncc1C(=O)N1CCN(Cc2cccnc2)CC1 | -6.82
79 | CNC(=O)[C@@]12CCCN(c3ncccn3)[C@@H]1CN(C)C2 | 29.8
80 | O=C1C(Nc2ncccn2)CCN1c1ccccc1OC(F)F (stereo unspecified) | 1.42
81 | CCOCC1COCCC12CCN(C(=O)CC1=CCCCC1)CC2 (stereo unspecified) | -5.12
82 | Cc1cnc(CN2CCCC(c3cc(C(F)(F)F)[nH]n3)C2)cn1 (stereo unspecified) | -1.33
83 | COc1cccc(CN(C)CCCn2cnc3c(N)ncnc32)c1 | -9.38
84 | COc1ncnc2c1CCN(Cc1nccs1)CC2 | -8.56
85 | Cc1cnc(N2CC[C@@H]3O[C@@H](COCC(=O)N(C)C)CC[C@@H]32)nc1 | -99.7
86 | CCN(C)CC1CCN(S(=O)(=O)c2cc(C)c(F)cc2Cl)C1 (stereo unspecified) | -4.14
87 | Cc1nc(CN2CC(=O)N(C)c3ccccc3C2=O)no1 | -1.75
88 | O=C(c1cnc(Nc2ccccc2)nc1)N1CCCC2(CCNC2)C1 (stereo unspecified) | -8.38
89 | CN(CCN1CCOC1=O)CC(=O)Nc1ccc(Cl)c(C(F)(F)F)c1 | -22
90 | CN1CCN(Cc2c(-c3ccco3)[nH]c3ncccc23)CC1 | -6.17
91 | CCc1cnc(N2CCN(Cc3ccon3)CC2)s1 | -6.28
92 | Cc1nonc1C(=O)N1CCCC(c2ncncc2-c2ccncc2)C1 (stereo unspecified) | -28.8

Row | Structure (SMILES) | cytotoxicity at 70.5 h [%]
93 | Cc1cncc(CN2CC[C@@](O)(CNC(=O)c3c[nH]cn3)[C@H](O)C2)c1 | -6.5
94 | COCCOCc1cccc(NC(=O)N2CCCC2c2ccncc2)c1 (stereo unspecified) | 1.97
95 | c1ccc2c(c1)CCN(c1nc(N3CCOCC3)c3nn[nH]c3n1)C2 | -0.0594
96 | CCN1CCN(c2ccc(NC(C)c3nc(C(C)C)no3)c(C)c2)CC1 (stereo unspecified) | -12.5
97 | Cc1nc(CNC(=O)Nc2cc(C(F)(F)F)c[nH]c2=O)cs1 | 1.62
98 | NC(=O)CN1CCC2(CC1)C[C@@H](O)[C@H](c1ccccc1)NC2=O | -0.832
99 | Cc1ccc(N2C[C@H]3OCC[C@H]3[C@H](C(=O)NC3CCCC3)C2)nn1 | -12.6
100 | CC[C@@H](CO)NC(=O)c1coc(COc2ccc(OC)cc2)n1 | -13
101 | CC(C)N1CC[C@@](C)(O)[C@H](n2ccc(=O)[nH]c2=O)C1 | -7.14
102 | COc1ncccc1NC(=O)c1cccc(C)n1 | -7.22
103 | COCc1noc(Cn2c(=O)[nH]c3ccccc32)n1 | -10.2
104 | CN1CCN(C(=O)C2(NC(N)=O)CCCCC2)Cc2ccccc21 | -7.76
105 | CC(=O)N1CCN(CCNS(=O)(=O)c2c(F)cccc2F)CC1 | -5.97
106 | CNc1cc2c(nn1)CCN(C(=O)c1cc(F)cc(F)c1)C2 | -10
107 | CC(=O)N1CCN(C(=O)c2sccc2Br)CC1 | 15.1
108 | Cc1cccc(CN2CC[C@H]3CO[C@H](CNC(=O)N(C)C)[C@H]3C2)c1 | -3.19
109 | Cn1cnc2cc(CCC(=O)Nc3n[nH]c(C4CC4)n3)ccc21 | 17.9
110 | O=C(N[C@@H]1CN(c2ncccn2)[C@@H]2CCCO[C@@H]21)c1cnccn1 | -1.73
111 | Cc1ccc(-n2nc(C)c3c2NC(=O)CC3c2cnc(N)s2)cc1 (stereo unspecified) | -0.62
